Data taken from ChEMBL document CHEMBL1201862, “PubChem BioAssay data set” (2004).
Calls of active or inactive are those of the source.

Tests used:
[1] = Luminescence Cell-Based Dose Retest to Confirm Activators of 5'UTR Stem-Loop Driven Alpha-Synuclein mRNA Translation in H4 Neuroglioblastoma Cells. [Related pubchem assays (depositor defined):AID1813, AID1829]; type: functional
[2] = Luminescence Cell-Based Dose HTS Response to Identify Inhibitors of 5'UTR Stem-Loop Driven Prion Protein mRNA Translation in H4-C Neuroglioblastoma Cells. [Related pubchem assays (depositor defined):AID1814, AID1827]; type: functional
[3] = Luminescence Cell-Based Dose Response HTS to Identify Inhibitors of Luciferase Translation or Activity in H4-C Neuroglioblastoma Cells. [Related pubchem assays: 1813 (Primary HTS), 1827 (Project Summary)]; type: functional
[4] = Luminescence Cell-Based Dose Response HTS to Identify Activators of 5'UTR Stem-Loop Driven Prion Protein mRNA Translation in H4-C Neuroglioblastoma Cells. [Related pubchem assays: 1829 (Project Summary), 1814 (Primary HTS)]; type: functional
[5] = Luminescence Cell-Based Dose Confirmation HTS to Identify Inhibitors of 5'UTR Stem-Loop Driven Alpha-Synuclein mRNA Translation in H4 Neuroglioblastoma Cells. [Related pubchem assays: 1827 (Project Summary), 1813 (Primary HTS)]; type: functional
[6] = Luminescence Cell-Based Dose Response HTS to Identify Activators of Luciferase Translation or Activity in H4-C Neuroglioblastoma Cells. [Related pubchem assays: 1829 (Project Summary), 1814 (Primary HTS)]; type: functional
Nonstructural protein 1 = Nonstructural protein 1 (Influenza A virus, UniProt Q194T2); type: functional, Influenza A virus (A/California/07/2009(H1N1))
Ion channel NompC = Ion channel NompC (Danio rerio, UniProt Q7T1G6); experiment: Dose response cell-based high-throughput screening assay for agonists of the transient receptor potential channel N1 (TRPN1). [Related pubchem assays (depositor defined):AID1424, AID1448]; type: functional
Mucolipin-3 = Mucolipin-3 (Homo sapiens, UniProt Q8TDD5); experiment: Fluorescence counterscreen assay for […] agonists: dose response cell-based high-throughput screening assay to identify agonists of the transient receptor potential channel ML3 (TRPML3). [Related pubchem assays: 1424, 1448 ]; type: functional
[7] = target: T1, Ubiquitin-conjugating enzyme E2 N (Homo sapiens, UniProt P61088); type: functional
T1 sequence (P61088 whole entry): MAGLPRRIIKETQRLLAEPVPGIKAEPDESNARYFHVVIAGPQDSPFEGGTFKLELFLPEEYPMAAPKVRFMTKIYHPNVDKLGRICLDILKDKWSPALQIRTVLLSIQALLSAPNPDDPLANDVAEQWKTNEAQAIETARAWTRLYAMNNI

[8] = target: T1, Ubiquitin-conjugating enzyme E2 N; type: functional; remark: listed apart in the source
Bcl-2-related protein A1 = target: T2, Bcl-2-related protein A1 (Mus musculus, UniProt Q07440); type: functional;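 further: confirmatory dose–response counterscreen on Bfl-1, used to check hits from a UBC13 polyubiquitin inhibitor campaign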
T2 sequence (Q07440 whole entry): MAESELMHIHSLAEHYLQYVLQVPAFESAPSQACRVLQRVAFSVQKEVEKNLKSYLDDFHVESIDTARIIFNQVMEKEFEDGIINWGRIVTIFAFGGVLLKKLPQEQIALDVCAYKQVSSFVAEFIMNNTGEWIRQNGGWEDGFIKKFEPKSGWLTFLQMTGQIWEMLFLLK

[9] = Intein inhibitors as potential Tuberculosis drugs, a cytotoxicity screen. [Related pubchem assays (depositor defined):AID2221, AID2223, AID434968, AID435010, AID449749, AID449750, AID489010]; type: functional
[10] = target: T3, Replicative DNA helicase DnaB (Mycobacterium tuberculosis, UniProt P9WMR3); experiment: DnaB intein splicing inhibitors, dose response, biochemical, cell-free fluorescence (AID 449749); type: functional
T3 sequence (P9WMR3 whole entry): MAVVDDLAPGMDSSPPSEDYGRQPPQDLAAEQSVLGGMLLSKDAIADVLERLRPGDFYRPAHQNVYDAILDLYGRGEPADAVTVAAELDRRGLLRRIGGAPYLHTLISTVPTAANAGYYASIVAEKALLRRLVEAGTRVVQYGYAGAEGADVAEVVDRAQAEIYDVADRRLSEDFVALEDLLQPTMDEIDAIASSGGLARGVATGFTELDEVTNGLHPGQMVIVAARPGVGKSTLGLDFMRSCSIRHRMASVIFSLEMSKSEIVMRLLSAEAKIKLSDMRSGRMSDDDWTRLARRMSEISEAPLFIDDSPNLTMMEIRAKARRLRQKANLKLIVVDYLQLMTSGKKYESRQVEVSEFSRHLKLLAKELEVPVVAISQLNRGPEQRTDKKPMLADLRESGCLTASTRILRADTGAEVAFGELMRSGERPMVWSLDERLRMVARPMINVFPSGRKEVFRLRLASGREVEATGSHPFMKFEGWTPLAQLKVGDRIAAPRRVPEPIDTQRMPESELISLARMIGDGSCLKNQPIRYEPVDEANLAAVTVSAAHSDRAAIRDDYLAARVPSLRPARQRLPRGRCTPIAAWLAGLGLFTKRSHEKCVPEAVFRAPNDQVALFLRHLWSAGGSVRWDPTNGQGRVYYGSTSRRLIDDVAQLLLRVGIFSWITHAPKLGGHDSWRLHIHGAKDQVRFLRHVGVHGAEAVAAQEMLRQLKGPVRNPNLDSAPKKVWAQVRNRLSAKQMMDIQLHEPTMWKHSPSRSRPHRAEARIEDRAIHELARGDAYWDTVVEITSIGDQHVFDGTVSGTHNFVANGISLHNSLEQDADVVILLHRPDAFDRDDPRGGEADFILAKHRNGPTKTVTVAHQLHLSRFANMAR

Protein RecA = target: T4, Protein RecA (Mycobacterium tuberculosis, UniProt P9WHJ3); experiment: Fluorescence Cell-Free Homogeneous Dose Retest to Identify Inhibitors of RecA-Intein Splicing Activity. [Related pubchem assays (depositor defined):AID2097, AID2223, AID489010, AID492950]; type: functional
T4 sequence (P9WHJ3 whole entry): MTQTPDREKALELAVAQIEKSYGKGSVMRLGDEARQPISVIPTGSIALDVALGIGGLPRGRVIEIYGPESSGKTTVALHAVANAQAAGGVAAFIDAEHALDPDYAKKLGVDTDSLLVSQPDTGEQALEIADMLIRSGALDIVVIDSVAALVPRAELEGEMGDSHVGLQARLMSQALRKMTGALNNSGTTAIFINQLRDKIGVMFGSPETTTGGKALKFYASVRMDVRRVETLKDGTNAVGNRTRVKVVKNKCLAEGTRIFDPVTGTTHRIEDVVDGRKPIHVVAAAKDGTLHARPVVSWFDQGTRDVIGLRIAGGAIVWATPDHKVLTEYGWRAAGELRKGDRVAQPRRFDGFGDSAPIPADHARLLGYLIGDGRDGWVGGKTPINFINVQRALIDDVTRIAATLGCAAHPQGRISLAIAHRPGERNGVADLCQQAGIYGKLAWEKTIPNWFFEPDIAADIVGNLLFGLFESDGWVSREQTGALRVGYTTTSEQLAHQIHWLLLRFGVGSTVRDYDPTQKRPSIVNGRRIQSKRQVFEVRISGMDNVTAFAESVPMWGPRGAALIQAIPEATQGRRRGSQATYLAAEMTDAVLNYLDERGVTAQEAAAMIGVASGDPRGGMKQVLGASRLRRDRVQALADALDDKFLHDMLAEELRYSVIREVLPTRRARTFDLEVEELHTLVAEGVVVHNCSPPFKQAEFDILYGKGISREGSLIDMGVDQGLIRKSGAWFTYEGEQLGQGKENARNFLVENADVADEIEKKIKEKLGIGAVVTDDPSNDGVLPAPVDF

[11] = Luminescent dose response cell-based high throughput screening assay for inhibitors of the Janus kinase 2 mutant JAK2V617F. [Related pubchem assays: 1446 (Primary screen.), 1521 (Confirmation assay.), 1486 (Counter screen.)]; type: functional
[12] = mammalian cell cytotoxicity, dose response, cytotoxicity control, plate reader, cherry-pick samples (AID 504397); type: functional, cell-based
[13] = target: T5, Kappa-type opioid receptor (Homo sapiens, UniProt P41145); experiment: SAR analysis of small molecule agonists of the kappa opioid receptor via a luminescent beta-arrestin assay - Set 3. [Related pubchem assays (depositor defined):AID1777, AID1785, AID1786, AID1966, AID2133, AID2136, AID2284, AID2500]; type: functional
Mu-type opioid receptor = Mu-type opioid receptor (Homo sapiens, UniProt P35372); experiment: SAR Analysis of Agonists of the MOR Receptor using an Image-Based Assay - Set 3. [Related pubchem assays (depositor defined):AID1777, AID1785, AID1786, AID1966, AID2133, AID2136, AID2284, AID2285, AID2352]; type: functional
[14] = target: Delta-type opioid receptor (Homo sapiens, UniProt P41143); experiment: SAR Analysis of Agonists of the DOR Receptor using an Image-Based Assay - Set 3. [Related pubchem assays (depositor defined):AID1777, AID1786]; type: functional
[15] = target: T5, Kappa-type opioid receptor; experiment: KOR agonist analogs, arrestin-GFP redistribution, SAR follow-up, imaging, image-based, set 3 (AID 488833); type: functional
[16] = target: G-protein coupled receptor 55 (Homo sapiens, UniProt Q9Y2T6); experiment: SAR Analysis of Selective Antagonists of GPR55 using an Image-Based Assay - Set 4. [Related pubchem assays (depositor defined):AID2013, AID2026]; type: functional;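 further: antagonism of response to 5 µM lysophosphatidylinositol agonist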
Cannabinoid receptor 1 [17] = target: T6, Cannabinoid receptor 1 (Homo sapiens, UniProt P21554); experiment: SAR analysis of agonists of the Cannabinoid Receptor 1 using an Image-Based Assay - Set 4. [Related pubchem assays (depositor defined):AID2013, AID2026]; type: functional
[18] = target: T7, G-protein coupled receptor 35 (Homo sapiens, UniProt Q9HC97); experiment: SAR analysis of Agonists of the GPR35 Receptor using an Image-Based Assay - Set 4. [Related pubchem assays (depositor defined):AID2013, AID2026]; type: functional
Cannabinoid receptor 2 [19] = target: T8, Cannabinoid receptor 2 (Homo sapiens, UniProt P34972); experiment: SAR analysis of agonists of the Cannabinoid Receptor 2 using an Image-Based Assay - Set 3. [Related pubchem assays (depositor defined):AID2013, AID2026]; type: functional
[20] = target: T7, G-protein coupled receptor 35; experiment: SAR analysis of Antagonists of the GPR35 Receptor using an Image-Based Assay - Set 6. [Related pubchem assays (depositor defined):AID2013, AID2026]; type: functional
Cannabinoid receptor 2 [21] = target: T8, Cannabinoid receptor 2; experiment: SAR analysis of antagonists of the Cannabinoid Receptor 2 using an Image-Based Assay - Set 3. [Related pubchem assays (depositor defined):AID2013, AID2026]; type: functional
Cannabinoid receptor 1 [22] = target: T6, Cannabinoid receptor 1; experiment: SAR analysis of antagonists of the Cannabinoid Receptor 1 using an Image-Based Assay - Set 4. [Related pubchem assays (depositor defined):AID2013, AID2026]; type: functional
[23] = target: T9, Type-1 angiotensin II receptor (Homo sapiens, UniProt P30556); experiment: AT1 receptor agonists, dose response, selectivity assay for APJ receptor agonist project, cell-based, uHTS hits (AID 488865); type: functional;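 further: beta-arrestin recruitment to AT1 measured by enzyme fragment complementation luminescence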
T9 sequence (P30556 whole entry): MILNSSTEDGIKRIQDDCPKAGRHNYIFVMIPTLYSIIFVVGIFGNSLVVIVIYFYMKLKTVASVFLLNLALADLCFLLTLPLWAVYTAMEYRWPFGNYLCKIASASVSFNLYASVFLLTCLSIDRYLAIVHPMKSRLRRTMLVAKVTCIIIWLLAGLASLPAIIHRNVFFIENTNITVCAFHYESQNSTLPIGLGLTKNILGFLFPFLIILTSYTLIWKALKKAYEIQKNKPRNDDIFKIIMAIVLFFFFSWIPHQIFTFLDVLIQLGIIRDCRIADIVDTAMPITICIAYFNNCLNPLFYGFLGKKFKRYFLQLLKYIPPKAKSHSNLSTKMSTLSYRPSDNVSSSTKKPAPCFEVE
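Wherever CC50 is given: cells exposed to compound for 72 hours before luminescence readout.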

T6 sequence (P21554 whole entry): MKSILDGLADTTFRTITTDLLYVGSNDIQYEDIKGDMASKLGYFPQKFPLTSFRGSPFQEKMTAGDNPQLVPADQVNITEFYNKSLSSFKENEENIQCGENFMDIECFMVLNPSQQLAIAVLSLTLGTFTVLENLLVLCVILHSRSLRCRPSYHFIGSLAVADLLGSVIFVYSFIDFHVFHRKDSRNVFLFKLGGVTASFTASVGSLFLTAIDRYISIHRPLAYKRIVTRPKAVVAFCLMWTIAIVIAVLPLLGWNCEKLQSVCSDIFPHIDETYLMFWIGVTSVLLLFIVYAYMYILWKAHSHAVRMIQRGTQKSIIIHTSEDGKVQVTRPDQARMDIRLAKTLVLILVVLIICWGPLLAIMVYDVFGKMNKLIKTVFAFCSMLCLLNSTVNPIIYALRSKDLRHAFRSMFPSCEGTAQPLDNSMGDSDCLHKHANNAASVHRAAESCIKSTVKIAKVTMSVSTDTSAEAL
T5 sequence (P41145 whole entry): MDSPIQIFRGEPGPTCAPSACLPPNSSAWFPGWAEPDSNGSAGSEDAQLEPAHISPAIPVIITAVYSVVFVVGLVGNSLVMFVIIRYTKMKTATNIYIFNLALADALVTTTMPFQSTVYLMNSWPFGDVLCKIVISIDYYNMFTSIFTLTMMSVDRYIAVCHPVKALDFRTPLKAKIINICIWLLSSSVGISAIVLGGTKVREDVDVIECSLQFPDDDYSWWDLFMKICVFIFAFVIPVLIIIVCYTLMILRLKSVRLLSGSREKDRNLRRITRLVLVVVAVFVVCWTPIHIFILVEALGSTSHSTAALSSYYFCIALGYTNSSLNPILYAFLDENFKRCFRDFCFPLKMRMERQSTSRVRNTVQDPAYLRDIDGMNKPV
T8 sequence (P34972 whole entry): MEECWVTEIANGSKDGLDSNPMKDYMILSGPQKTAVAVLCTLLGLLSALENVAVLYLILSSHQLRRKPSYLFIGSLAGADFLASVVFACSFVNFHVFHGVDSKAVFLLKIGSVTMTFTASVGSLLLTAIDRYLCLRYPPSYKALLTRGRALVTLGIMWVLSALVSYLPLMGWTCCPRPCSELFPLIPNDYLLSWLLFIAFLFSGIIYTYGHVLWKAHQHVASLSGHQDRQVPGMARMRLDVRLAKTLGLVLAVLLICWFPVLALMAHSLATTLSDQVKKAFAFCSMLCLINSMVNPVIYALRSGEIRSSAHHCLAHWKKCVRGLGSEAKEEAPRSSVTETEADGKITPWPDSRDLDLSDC
T7 sequence (Q9HC97 whole entry): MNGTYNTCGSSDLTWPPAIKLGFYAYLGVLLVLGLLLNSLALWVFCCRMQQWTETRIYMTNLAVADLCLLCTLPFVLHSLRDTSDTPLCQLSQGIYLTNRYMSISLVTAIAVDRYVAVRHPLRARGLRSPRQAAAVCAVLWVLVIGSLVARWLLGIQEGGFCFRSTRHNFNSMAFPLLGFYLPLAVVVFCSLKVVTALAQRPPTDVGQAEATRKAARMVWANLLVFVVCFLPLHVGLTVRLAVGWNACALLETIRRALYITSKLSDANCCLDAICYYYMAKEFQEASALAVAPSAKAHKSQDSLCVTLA
Sequence of Mu-type opioid receptor (P35372 whole entry): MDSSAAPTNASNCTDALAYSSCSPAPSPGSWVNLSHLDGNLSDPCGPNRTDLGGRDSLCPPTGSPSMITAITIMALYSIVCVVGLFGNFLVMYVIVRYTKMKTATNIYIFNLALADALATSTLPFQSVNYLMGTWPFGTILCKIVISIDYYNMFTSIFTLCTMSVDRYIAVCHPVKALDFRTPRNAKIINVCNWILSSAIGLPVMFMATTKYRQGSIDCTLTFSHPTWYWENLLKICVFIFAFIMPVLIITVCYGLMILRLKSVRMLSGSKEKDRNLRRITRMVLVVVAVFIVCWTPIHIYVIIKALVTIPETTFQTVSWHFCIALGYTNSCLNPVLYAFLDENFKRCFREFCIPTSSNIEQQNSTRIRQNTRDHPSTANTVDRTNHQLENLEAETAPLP
Sequence of Delta-type opioid receptor (P41143 whole entry): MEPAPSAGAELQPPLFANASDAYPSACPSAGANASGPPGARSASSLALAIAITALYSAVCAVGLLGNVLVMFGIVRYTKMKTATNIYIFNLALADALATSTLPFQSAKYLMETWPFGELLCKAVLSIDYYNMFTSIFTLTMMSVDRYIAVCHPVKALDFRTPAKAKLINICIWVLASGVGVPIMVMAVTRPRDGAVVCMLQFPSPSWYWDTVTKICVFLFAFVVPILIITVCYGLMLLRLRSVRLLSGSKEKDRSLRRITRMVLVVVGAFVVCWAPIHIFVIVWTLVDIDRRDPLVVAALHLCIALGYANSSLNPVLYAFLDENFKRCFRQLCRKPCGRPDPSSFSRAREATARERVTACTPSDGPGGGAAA
Sequence of Mucolipin-3 (Q8TDD5 whole entry): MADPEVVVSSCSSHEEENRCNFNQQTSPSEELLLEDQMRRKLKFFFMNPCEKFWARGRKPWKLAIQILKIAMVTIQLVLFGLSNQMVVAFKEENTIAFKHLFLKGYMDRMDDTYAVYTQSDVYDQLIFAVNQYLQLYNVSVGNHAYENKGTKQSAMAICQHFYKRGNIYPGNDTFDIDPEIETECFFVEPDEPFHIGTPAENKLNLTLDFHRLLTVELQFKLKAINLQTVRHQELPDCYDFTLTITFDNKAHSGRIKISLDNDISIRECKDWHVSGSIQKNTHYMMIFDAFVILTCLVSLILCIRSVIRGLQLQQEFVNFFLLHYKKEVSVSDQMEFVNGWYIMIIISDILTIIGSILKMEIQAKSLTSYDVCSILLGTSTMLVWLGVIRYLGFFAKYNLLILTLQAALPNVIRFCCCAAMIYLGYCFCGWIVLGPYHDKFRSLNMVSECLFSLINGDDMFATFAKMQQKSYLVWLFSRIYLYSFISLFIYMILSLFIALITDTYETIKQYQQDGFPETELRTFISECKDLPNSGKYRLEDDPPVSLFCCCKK
Sequence of Ion channel NompC (Q7T1G6 whole entry): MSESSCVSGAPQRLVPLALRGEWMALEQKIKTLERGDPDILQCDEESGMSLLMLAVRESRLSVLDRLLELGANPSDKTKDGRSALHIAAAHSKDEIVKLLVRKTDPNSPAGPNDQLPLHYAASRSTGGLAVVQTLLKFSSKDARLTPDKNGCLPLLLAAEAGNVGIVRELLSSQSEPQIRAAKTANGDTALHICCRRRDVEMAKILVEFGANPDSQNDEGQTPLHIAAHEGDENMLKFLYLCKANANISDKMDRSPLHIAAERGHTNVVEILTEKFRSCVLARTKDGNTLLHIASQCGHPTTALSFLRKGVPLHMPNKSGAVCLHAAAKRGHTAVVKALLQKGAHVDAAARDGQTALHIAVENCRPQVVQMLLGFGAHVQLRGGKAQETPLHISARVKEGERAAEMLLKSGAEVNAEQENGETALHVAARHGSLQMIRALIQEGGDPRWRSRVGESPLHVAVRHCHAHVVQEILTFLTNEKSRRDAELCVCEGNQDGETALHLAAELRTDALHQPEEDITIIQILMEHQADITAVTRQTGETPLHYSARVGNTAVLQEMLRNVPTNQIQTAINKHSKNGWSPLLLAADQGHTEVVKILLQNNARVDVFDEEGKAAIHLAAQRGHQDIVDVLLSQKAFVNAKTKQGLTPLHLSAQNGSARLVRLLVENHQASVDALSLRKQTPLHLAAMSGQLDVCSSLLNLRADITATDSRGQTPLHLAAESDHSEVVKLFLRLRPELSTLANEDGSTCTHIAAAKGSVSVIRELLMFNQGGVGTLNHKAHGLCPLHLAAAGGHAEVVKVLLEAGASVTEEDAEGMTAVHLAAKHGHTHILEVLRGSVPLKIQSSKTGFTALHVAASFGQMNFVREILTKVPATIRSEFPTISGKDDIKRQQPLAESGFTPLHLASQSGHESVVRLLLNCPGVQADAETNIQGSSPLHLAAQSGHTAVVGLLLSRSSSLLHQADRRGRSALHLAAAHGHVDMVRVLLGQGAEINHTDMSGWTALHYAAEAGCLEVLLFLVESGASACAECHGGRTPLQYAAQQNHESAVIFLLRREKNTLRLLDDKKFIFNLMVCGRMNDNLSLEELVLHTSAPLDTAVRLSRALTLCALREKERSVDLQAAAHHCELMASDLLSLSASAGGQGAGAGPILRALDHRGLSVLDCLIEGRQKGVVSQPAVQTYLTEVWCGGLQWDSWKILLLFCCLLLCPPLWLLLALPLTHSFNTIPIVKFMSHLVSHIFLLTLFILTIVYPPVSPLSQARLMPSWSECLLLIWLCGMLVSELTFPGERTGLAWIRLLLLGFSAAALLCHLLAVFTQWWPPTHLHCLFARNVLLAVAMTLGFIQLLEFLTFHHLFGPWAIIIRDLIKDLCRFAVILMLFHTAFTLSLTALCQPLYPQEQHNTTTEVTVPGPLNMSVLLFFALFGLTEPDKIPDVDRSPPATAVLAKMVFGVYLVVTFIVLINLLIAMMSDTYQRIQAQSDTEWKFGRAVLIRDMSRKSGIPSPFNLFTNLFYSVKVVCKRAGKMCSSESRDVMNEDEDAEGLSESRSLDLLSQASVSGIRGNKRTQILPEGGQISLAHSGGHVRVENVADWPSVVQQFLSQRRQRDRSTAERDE
Sequence of G-protein coupled receptor 55 (Q9Y2T6 whole entry): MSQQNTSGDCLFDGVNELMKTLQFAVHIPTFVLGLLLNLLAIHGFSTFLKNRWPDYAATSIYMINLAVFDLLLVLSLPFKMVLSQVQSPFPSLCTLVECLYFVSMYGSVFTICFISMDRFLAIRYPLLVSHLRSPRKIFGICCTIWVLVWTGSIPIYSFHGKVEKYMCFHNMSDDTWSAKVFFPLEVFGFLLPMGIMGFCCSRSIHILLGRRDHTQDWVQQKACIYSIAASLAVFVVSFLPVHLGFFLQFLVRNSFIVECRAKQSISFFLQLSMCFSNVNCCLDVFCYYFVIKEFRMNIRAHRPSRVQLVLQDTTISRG

## Oc1ccccc1/N=N/c1ccccc1O
[1]
  EC50: 1.77 µM (inconclusive)
[2]
  EC50: 1.09 µM (active)
[3]
  EC50: 1.36 µM (active)
[4]
  EC50: 0.399 µM (inconclusive)
[5]
  EC50: 1.7 µM (active)
[6]
  EC50: 0.929 µM (inconclusive)

## CCN1C(=O)/C(=C/C=C2\N(CC)c3cc(S(=O)(=O)N(C)C)ccc3N2c2ccccc2)SC1=S
Nonstructural protein 1
  IC50: 55.3 µM (active)
Ion channel NompC
  EC50: 1.62 µM (active)
Mucolipin-3
  EC50: > 29.9 µM (not active)

## CCOc1ccc(-c2csc(NC(=O)c3cccc(N4C(=O)CCC4=O)c3)n2)cc1
[7]
  IC50: > 20 µM (inactive)
[8]
  IC50: 15.7 µM (active)
Bcl-2-related protein A1
  IC50: > 20 µM (inactive)

## Cc1ccc(C)c(Sc2ccc(NC(=O)CCl)cc2)c1
[9]
  CC50: 7.6 µM (active)
[10]
  AC50: 2.3 µM (active)
Protein RecA
  EC50: 0.602 µM (active)
[11]
  IC50: 0.743 µM (active)

## O=C(Nc1ccccc1N1CCOCC1)C1CCN(S(=O)(=O)c2ccc(F)cc2)CC1
[12]
  AC50: > 350 µM (inactive)

## FC(F)(F)c1cc(CSc2nnc(-c3ccccn3)n2Cc2cccs2)ccc1Cl
[13]
  EC50: 0.432 µM (active)
Mu-type opioid receptor
  EC50: > 32 µM (inactive)
[14]
  EC50: > 32 µM (inactive)
[15]
  EC50: 1.38 µM (active)

## Cc1nnc(-c2ccccc2)c2cn(-c3ccc(Cl)cc3)nc12
[16]
  IC50: 1.77 µM (active)
Cannabinoid receptor 1 [17]
  EC50: > 32 µM (inactive)
[18]
  EC50: > 32 µM (inactive)
Cannabinoid receptor 2 [19]
  EC50: > 32 µM (inactive)
[20]
  IC50: 23 µM (inactive)
Cannabinoid receptor 2 [21]
  IC50: > 32 µM (inactive)
Cannabinoid receptor 1 [22]
  IC50: 3.63 µM (active)

## Cc1ccc(/C=N/NC(=O)CSc2nnc(-c3ccccc3)n2-c2ccc(Cl)cc2)o1
[23]
  EC50: > 100 µM (inactive)
